Test results published in article PMC9027599, “Secondary Metabolites in Basil, Bio-Insecticide, Inhibition Effect, and In Silico Molecular Docking against Proteolytic Enzymes of the Red Palm Weevil (Rhynchophorus ferrugineus)” (Plants, 2022).

Assays:
[1] = system: R. ferrugineus fourth larvae; test: Topical application (contact insecticide) on larvae; assay type: in vivo, Rhynchophorus ferrugineus; details: 4th larvae, probit analysis, 95% confidence limits in brackets
Experimental: The R. ferrugineus adult and larvae were acquired from an insect breeding lab at King Faisal University’s Date Palm Research Center of Excellence and grown utilizing sugarcane stem long pieces. The extracts activity against larvae was determined by using topical application method with storing larvae at 4–5 °C for 5 min. Previous serial concentrations of extract (10 µL) were applied to the dorsum of each larvae using a hand-operated micro-applicator (Burkard Manufacturing Co., Ltd., Hertfordshire, UK with a 50-ll micro-syringe (MS-N50; Ito Corp., Shizuoka, Japan). Each larva was feeding on 10 cm stem pieces of long sugarcane, with 5 larvae/box with three replicates. After topical administration, larval mortality was determined after 24, 48, 72, and 96 h to determine the LD50. Adults were tested for antifeedant effect determined using ten-centimeter-long sections of sugarcane stem divided into equal longitudinal halves. Pieces of long sections of sugarcane stem with area ~32.2 cm^2 were dipped for ten seconds in the previous serial concentration of extract (10 mL) and, then, dried in room temperature air. […] Each package received a replacement pair (male and female). Each treatment was replicated ten times. After 24, 48, 72, and 96 h, feeding observations were assayed.
Finney states that the statistical analysis and probit analysis were conducted using the SPSS 25.0 program (Statistical Package for Social Sciences, Armonk, NY, USA). Chemical components were determined by PCA using SPSS 25.0 program and presented using XLSTAT 2018.1. PCA is a clustering technique that is used to determine the relationships between samples. […] We did a mortality against dosage regression and converted the resultant median dose to an LC50 value (µg/mL). The range of LC50 was calculated with a 95 percent confidence interval using least-squares. We conducted a one-way analysis of variance on the enzyme activity data (ANOVA). The Student–Newman–Keuls (SNK) test was applied with separate means, and differences at p ≤ 0.05 were considered significant.

[2] = biological target: metalloprotease; test: Metalloproteinase activity, azocasein (in vitro); assay type: biochemical, Rhynchophorus ferrugineus; details: fourth instar larvae midgut homogenate
Experimental: A substrate azocasein assessed the metalloproteinases activity in the fourth midgut instar larval homogenate. Ten larvae were carefully removed, dissected, and rinsed repeatedly with NaCl solution (0.9% (w/v). […] After homogenization, the homogenates were centrifuged at 5000 rpm (for 30 min) using a Sigma centrifuge 3k30, and the supernatant was utilized to determine enzyme activity and protein content. The supernatant per experiment (10 µL) was incubated for 20 min at 37 °C, and the volume was adjusted to 60 µL using assay buffer pH 8 before adding azocasein (200 µL, 2% (w/v)). In all instances, 10 µL enzyme samples were incubated for 10 min (except EDTA with 20 min), and EDTA was used as a blocker of metalloproteinase activity before being added to the specific substrate. The reaction was interrupted with 300 µL of trichloroacetic acid (TCA cold, 10% (v/v) and continued at 37 °C for 180 min. The reaction mixture was then centrifuged at 5000 rpm for 20 min (Sigma centrifuge 3k30), sodium hydroxide (10 µL of 10 N) was incorporated into the supernatant, then absorbance was determined using an ELISA plate reader at 450 nm. As a blank, an assay mixture devoid of the enzyme was devoted, the specific activity was determined using the OD450 mg^−1 protein min^−1 value, and a blank solution sample devoid of enzyme solution was determined. To learn more about the proteases found in homogenate preparations of R. ferrugineus fourth midgut larval instars, inhibitors from many different types of mechanisms were used. […] As a control, an assay combination devoid of inhibitors was utilized. The absorbance of the enzymes was determined using an ELISA plate quick reader at various wavelengths. The percentage activity of the control enzyme for each inhibitor was evaluated for each enzyme. […] Larvae were exposed for 24 h to leaf discs treated with extract and compounds.

[3] = biological target: cysteine protease; test: Cysteine proteinase activity, Z-Phe-Arg-MNA (in vitro); assay type: biochemical, Rhynchophorus ferrugineus; details: fourth instar larvae midgut homogenate
Experimental: The activity of cysteine proteinase was determined in the fourth midgut instar larval homogenate of R. ferrugineus using the substrate Z-Phe-Arg-MNA [1]. Ten larvae were carefully removed, dissected, and rinsed repeatedly with NaCl solution (0.9% (w/v). The midgut instar was homogenized in protease assay buffer (500 µL) [5 mM DTT, 50 mM HEPS (N-2-Hydroxyethyl piperazin-N’-2-ethanesulfonic acid), pH 8.0, and 0.1 percent Triton X-100]. The reaction mixture was centrifuged for 30 min at 5000 rpm (Sigma 3k30 cooling centrifuge). The supernatant was utilized to determine the overall activity of proteolytic enzymes and the protein content. The supernatant (10 µL) was incubated for 30 min at 37 °C, and the volume was adjusted to 60 µL using assay buffer (pH 8) before adding 100 µL of substrate (0.5 mM). Prior to adding the substrate, 10 µL enzyme samples were pre-incubated with iodoacetic acid for 10 min. After 60 min at 37 °C of mixture incubation, the reaction was halted with the addition of 1.5 mL mersalyl (5 mM), 0.02 mg/mL fast garnet reactive solution, and 2% Tween 20. The reaction was centrifuged (at 5000 rpm, 6 min), then the absorbance was determined (at 520 nm). The activity of cysteine proteinase was measured using an ELISA quick plate reader at the OD520/60 min/mg of midgut protein. As a blank, a test mixture devoid of enzyme was used. […] The fourth homogenates of midgut larval were produced as reported before in the experiment for determining enzyme activity. As previously disclosed, the inhibitory experiment was performed using a microplate assay. A series of inhibitor concentrations was created to determine the inhibitor’s maximal inhibitory effect. Leupeptin concentrations of 0.01, 0.05, 0.1, and 1.0 mM, PMSF concentrations of 0.1, 1.0, 10, and 50 mM, TLCK and TPCK concentrations of 0.01, 0.05, 0.1, 1, 50, and 100 mM, EDTA concentrations of 0.1, 1, 10, 50, and 100 mM, and iodoacetic acid concentrations of 0.01, 0.05, 0.1, and 1 mM.
As a control, an assay combination devoid of inhibitors was utilized. The absorbance of the enzymes was determined using an ELISA plate quick reader at various wavelengths. The percentage activity of the control enzyme for each inhibitor was evaluated for each enzyme. Protease activity was assayed in vivo in the R. ferrugineus fourth midgut larval instars, which were treated with 1, 10, 50, 100, 500, 1000, and 5000 mg/L of extracts or compounds, measured as described above. Larvae were exposed for 24 h to leaf discs treated with extract and compounds.

| Compound | LD50 [1] | IC50 against metalloprotease (in vitro) [2] | IC50 against cysteine protease (in vitro) [3] |
| --- | --- | --- | --- |
| O=C(O)C[C@H](C(=O)O)[C@@H](O)C(=O)O [Isocitric acid] | 23.9 (21.1–24.6) µg/Larvae | 127.8 µg/mL | 119.1 µg/mL |
| O=C(/C=C/c1ccc(O)c(O)c1)O/C=C\c1ccc(O)c(O)c1 [Nepetoidin B] | 11.9 (11.1–12.3) µg/Larvae | 51.1 µg/mL | 63.3 µg/mL |
| C[C@@H]1O[C@@H](OC[C@H]2O[C@@H](Oc3c(-c4ccc(O)c(O)c4)oc4cc(O)cc(O)c4c3=O)[C@H](O)[C@@H](O)[C@@H]2O)[C@H](O)[C@H](O)[C@H]1O [Quercetin-3-O-rutinoside] | 16.9 (15.1–17.6) µg/Larvae | 37.3 µg/mL | 53.6 µg/mL |
| O=C(/C=C/c1ccc(O)c(O)c1)O[C@H](Cc1ccc(O)c(O)c1)C(=O)O [Rosmarinic acid] | 12.4 (11.8–12.7) µg/Larvae | 48.4 µg/mL | 67.8 µg/mL |
| COc1ccc(-c2cc(=O)c3c(O)c(OC)c(OC)cc3o2)cc1 [Salvigenin, 5-Hydroxy-6,7,4′-trimethoxyflavone] | 11.4 (10.4–11.8) µg/Larvae | 49.1 µg/mL | 89.6 µg/mL |
| dicaffeoyl-tartaric acid [Chicoric acid] | 10.23 (9.87–10.94) µg/Larvae | 44.6 µg/mL | 81.2 µg/mL |
